Measured values taken from ChEMBL document CHEMBL3885881, “DrugMatrix”.

Species: Rattus norvegicus
Assay: DrugMatrix - Regimen: Daily Repeat
Format: toxicity, organism-based, Sprague-Dawley
Parameters: regimen Daily Repeat, gender Male, age 6-8 weeks
Conditions: in vivo, po, route oral GAVAGE, vehicle 100 % WATER; for ABSOLUTE BASOPHIL / ABSOLUTE EOSINOPHIL / ABSOLUTE LYMPHOCYTE / ABSOLUTE MONOCYTE / ABSOLUTE SEGMENTED NEUTROPHIL / BASOPHIL / EOSINOPHIL / ERYTHROCYTE COUNT / HEMATOCRIT / HEMOGLOBIN / LEUKOCYTE COUNT / LYMPHOCYTE / MEAN CORPUSCULAR HEMOGLOBIN / MEAN CORPUSCULAR HEMOGLOBIN CONCENTRATION / MEAN CORPUSCULAR VOLUME / MONOCYTE / NEUTROPHIL / NUCLEATED RED BLOOD CELLS / PLATELET COUNT: tissue Blood; for ALANINE AMINOTRANSFERASE / ALBUMIN / ALKALINE PHOSPHATASE / ASPARTATE AMINOTRANSFERASE / BLOOD UREA NITROGEN / CARBON DIOXIDE / CHLORIDE / CHOLESTEROL / CREATINE PHOSPHOKINASE / CREATININE / GLUCOSE / LACTATE DEHYDROGENASE / LIPASE / PHOSPHORUS / POTASSIUM / SODIUM / TOTAL BILIRUBIN / TOTAL PROTEIN / URIC ACID: tissue Plasma
[1] = 60 mg/kg, 72 h, dose level Low, time 3 day
[2] = 60 mg/kg, 120 h, dose level Low, time 5 day
[3] = 600 mg/kg, 72 h, dose level High, time 3 day
[4] = 600 mg/kg, 120 h, dose level High, time 5 day

## C=C(Cl)Cl [1,1-DICHLOROETHENE]
[1]
  ABSOLUTE BASOPHIL: 0 CELLS/uL
  ABSOLUTE EOSINOPHIL: 51.33 CELLS/uL
  ABSOLUTE LYMPHOCYTE: 13010.33 CELLS/uL
  ABSOLUTE MONOCYTE: 288.67 CELLS/uL
  ABSOLUTE SEGMENTED NEUTROPHIL: 1149.67 CELLS/uL
  BASOPHIL: 0%
  EOSINOPHIL: 0.33%
  ERYTHROCYTE COUNT: 5.5 x10E6/uL
  HEMATOCRIT: 34%
  HEMOGLOBIN: 13.53 G/DL
  LEUKOCYTE COUNT: 14.5 x10E3/uL
  LYMPHOCYTE: 89.67%
  MEAN CORPUSCULAR HEMOGLOBIN: 24.63 pg
  MEAN CORPUSCULAR HEMOGLOBIN CONCENTRATION: 39.83 G/DL
  MEAN CORPUSCULAR VOLUME: 61.83 fL
  MONOCYTE: 2%
  NEUTROPHIL: 8%
  NUCLEATED RED BLOOD CELLS: 0.33 /100WBC
  PLATELET COUNT: 1358.33 x10E3/uL
  ALANINE AMINOTRANSFERASE: 52 u/L
  ALBUMIN: 4.13 G/DL
  ALKALINE PHOSPHATASE: 441.67 u/L
  ASPARTATE AMINOTRANSFERASE: 84.67 u/L
  BLOOD UREA NITROGEN: 15 mg/dL
  CARBON DIOXIDE: 24.33 mmol/L
  CHLORIDE: 102 MEQ/L
  CHOLESTEROL: 73.33 mg/dL
  CREATINE PHOSPHOKINASE: 314 u/L
  CREATININE: 0.14 mg/dL
  GLUCOSE: 162 mg/dL
  LACTATE DEHYDROGENASE: 291.33 u/L
  LIPASE: 9 u/L
  PHOSPHORUS: 13 mg/dL
  POTASSIUM: 6.27 MEQ/L
  SODIUM: 144.17 MEQ/L
  TOTAL BILIRUBIN: 0.13 mg/dL
  TOTAL PROTEIN: 5.77 G/DL
  URIC ACID: 1.43 mg/dL
[2]
  ABSOLUTE BASOPHIL: 0 CELLS/uL
  ABSOLUTE EOSINOPHIL: 128.33 CELLS/uL
  ABSOLUTE LYMPHOCYTE: 16922 CELLS/uL
  ABSOLUTE MONOCYTE: 76.33 CELLS/uL
  ABSOLUTE SEGMENTED NEUTROPHIL: 1473.33 CELLS/uL
  BASOPHIL: 0%
  EOSINOPHIL: 0.67%
  ERYTHROCYTE COUNT: 5.28 x10E6/uL
  HEMATOCRIT: 33.8%
  HEMOGLOBIN: 13.87 G/DL
  LEUKOCYTE COUNT: 18.6 x10E3/uL
  LYMPHOCYTE: 91.33%
  MEAN CORPUSCULAR HEMOGLOBIN: 26.23 pg
  MEAN CORPUSCULAR HEMOGLOBIN CONCENTRATION: 41.07 G/DL
  MEAN CORPUSCULAR VOLUME: 63.9 fL
  MONOCYTE: 0.33%
  NEUTROPHIL: 7.67%
  NUCLEATED RED BLOOD CELLS: 0 /100WBC
  PLATELET COUNT: 1031 x10E3/uL
  ALANINE AMINOTRANSFERASE: 56.67 u/L
  ALBUMIN: 4.23 G/DL
  ALKALINE PHOSPHATASE: 282 u/L
  ASPARTATE AMINOTRANSFERASE: 78 u/L
  BLOOD UREA NITROGEN: 16.67 mg/dL
  CARBON DIOXIDE: 23.67 mmol/L
  CHLORIDE: 103.67 MEQ/L
  CHOLESTEROL: 71.67 mg/dL
  CREATINE PHOSPHOKINASE: 168.67 u/L
  CREATININE: 0.22 mg/dL
  GLUCOSE: 147.33 mg/dL
  LACTATE DEHYDROGENASE: 101.67 u/L
  LIPASE: 9.33 u/L
  PHOSPHORUS: 13.27 mg/dL
  POTASSIUM: 6.62 MEQ/L
  SODIUM: 147.33 MEQ/L
  TOTAL BILIRUBIN: 0.2 mg/dL
  TOTAL PROTEIN: 5.9 G/DL
  URIC ACID: 1.67 mg/dL
[3]
  ABSOLUTE BASOPHIL: 0 CELLS/uL
  ABSOLUTE EOSINOPHIL: 0 CELLS/uL
  ABSOLUTE LYMPHOCYTE: 19725 CELLS/uL
  ABSOLUTE MONOCYTE: 397.33 CELLS/uL
  ABSOLUTE SEGMENTED NEUTROPHIL: 2311 CELLS/uL
  BASOPHIL: 0%
  EOSINOPHIL: 0%
  ERYTHROCYTE COUNT: 5.83 x10E6/uL
  HEMATOCRIT: 37.37%
  HEMOGLOBIN: 15.3 G/DL
  LEUKOCYTE COUNT: 22.43 x10E3/uL
  LYMPHOCYTE: 88.33%
  MEAN CORPUSCULAR HEMOGLOBIN: 26.2 pg
  MEAN CORPUSCULAR HEMOGLOBIN CONCENTRATION: 40.93 G/DL
  MEAN CORPUSCULAR VOLUME: 64 fL
  MONOCYTE: 2%
  NEUTROPHIL: 9.67%
  NUCLEATED RED BLOOD CELLS: 0.33 /100WBC
  PLATELET COUNT: 1189.67 x10E3/uL
  ALANINE AMINOTRANSFERASE: 61.33 u/L
  ALBUMIN: 4.23 G/DL
  ALKALINE PHOSPHATASE: 458.33 u/L
  ASPARTATE AMINOTRANSFERASE: 80 u/L
  BLOOD UREA NITROGEN: 11.33 mg/dL
  CARBON DIOXIDE: 26 mmol/L
  CHLORIDE: 103.67 MEQ/L
  CHOLESTEROL: 79.67 mg/dL
  CREATINE PHOSPHOKINASE: 213.67 u/L
  CREATININE: 0.17 mg/dL
  GLUCOSE: 159 mg/dL
  LACTATE DEHYDROGENASE: 74.33 u/L
  LIPASE: 9.67 u/L
  PHOSPHORUS: 12.7 mg/dL
  POTASSIUM: 6.59 MEQ/L
  SODIUM: 144.9 MEQ/L
  TOTAL BILIRUBIN: 0.2 mg/dL
  TOTAL PROTEIN: 5.83 G/DL
  URIC ACID: 1.9 mg/dL
[4]
  ABSOLUTE BASOPHIL: 0 CELLS/uL
  ABSOLUTE EOSINOPHIL: 0 CELLS/uL
  ABSOLUTE LYMPHOCYTE: 18262.67 CELLS/uL
  ABSOLUTE MONOCYTE: 288.67 CELLS/uL
  ABSOLUTE SEGMENTED NEUTROPHIL: 2115.33 CELLS/uL
  BASOPHIL: 0%
  EOSINOPHIL: 0%
  ERYTHROCYTE COUNT: 5.83 x10E6/uL
  HEMATOCRIT: 36.67%
  HEMOGLOBIN: 14.73 G/DL
  LEUKOCYTE COUNT: 20.67 x10E3/uL
  LYMPHOCYTE: 89%
  MEAN CORPUSCULAR HEMOGLOBIN: 25.23 pg
  MEAN CORPUSCULAR HEMOGLOBIN CONCENTRATION: 40.2 G/DL
  MEAN CORPUSCULAR VOLUME: 62.87 fL
  MONOCYTE: 1.33%
  NEUTROPHIL: 9.67%
  NUCLEATED RED BLOOD CELLS: 0.33 /100WBC
  PLATELET COUNT: 1233.33 x10E3/uL
  ALANINE AMINOTRANSFERASE: 48 u/L
  ALBUMIN: 4.23 G/DL
  ALKALINE PHOSPHATASE: 376.33 u/L
  ASPARTATE AMINOTRANSFERASE: 81 u/L
  BLOOD UREA NITROGEN: 14.67 mg/dL
  CARBON DIOXIDE: 23.33 mmol/L
  CHLORIDE: 102 MEQ/L
  CHOLESTEROL: 75 mg/dL
  CREATINE PHOSPHOKINASE: 337.67 u/L
  CREATININE: 0.21 mg/dL
  GLUCOSE: 150.33 mg/dL
  LACTATE DEHYDROGENASE: 117.33 u/L
  LIPASE: 10 u/L
  PHOSPHORUS: 12.33 mg/dL
  POTASSIUM: 7.1 MEQ/L
  SODIUM: 144.9 MEQ/L
  TOTAL BILIRUBIN: 0.2 mg/dL
  TOTAL PROTEIN: 6.1 G/DL
  URIC ACID: 1.77 mg/dL
